Laboratory results as given in PMC11089511 (Journal of Medicinal Chemistry, 2024).

Experiments:
[1] = biological target: wild-type TTR in human plasma (Homo sapiens, UniProt P02766); assay: Ex vivo competitive binding assay using a fluorogenic probe in human plasma; conditions: for binding to TTR in human plasma (probe fluorescence intensity), in words: 6 h of incubation, Figure 3 / Figures S2–S4
[2] = cited from earlier work
[3] = cited from earlier work; remark: listed apart in the source
[4] = cited from earlier work; remark: listed apart in the source

CCc1oc2ccc(Cl)c(Cl)c2c1C(=O)c1cc(I)c(O)c(I)c1 [Compound 18, (4,5-Dichloro-2-ethylbenzofuran-3-yl)(4-hydroxy-3,5-diiodophenyl)methanone]
binding to TTR in human plasma (probe fluorescence intensity), in words [1]: remarkably reduced compared to that of 7

O=C(O)c1ccc2nc(-c3cc(Cl)cc(Cl)c3)oc2c1 [Compound 1, Tafamidis]
aqueous solubility pH 6.8 [2]: >100 μM
hepatic microsome stability in rats [3]: 38.7 mL/min/kg
PAMPA permeability [4]: >50 ×10^–6 cm/s

CCc1oc2c(Cl)c(Cl)ccc2c1C(=O)c1cc(I)c(O)c(I)c1 [Compound 19, (6,7-Dichloro-2-ethylbenzofuran-3-yl)(4-hydroxy-3,5-diiodophenyl)methanone]
binding to TTR in human plasma (probe fluorescence intensity), in words [1]: remarkably reduced compared to that of 7

CCc1oc2ccccc2c1C(=O)c1cc(I)c(O)c(I)c1 [Compound 3, benziodarone]
fluorescence intensity of the probe relative to the control (DMSO) ([1]; compound 20 μM, human plasma with 5 μM TTR, Figure 2): approximately 30%

CCc1sc2ccccc2c1C(=O)c1cc(I)c(O)c(I)c1 [Compound 14, (2-Ethylbenzo[b]thien-3-yl)(4-hydroxy-3,5-diiodophenyl)methanone]
binding to TTR in human plasma (probe fluorescence intensity), in words [1]: weaker binding compared to 3
